We go through 19 compounds from patent publication US12084472B2 (Ardelyx, Inc., priority 2015, dated 2024).

Bounds are passed on as bounds.

The assay has as its target T1, human TGR5 (Homo sapiens, UniProt Q8TDU6).
T1 construct: expressed in transfected cells; host or cells: HEK293
T1 sequence (Q8TDU6 1-330): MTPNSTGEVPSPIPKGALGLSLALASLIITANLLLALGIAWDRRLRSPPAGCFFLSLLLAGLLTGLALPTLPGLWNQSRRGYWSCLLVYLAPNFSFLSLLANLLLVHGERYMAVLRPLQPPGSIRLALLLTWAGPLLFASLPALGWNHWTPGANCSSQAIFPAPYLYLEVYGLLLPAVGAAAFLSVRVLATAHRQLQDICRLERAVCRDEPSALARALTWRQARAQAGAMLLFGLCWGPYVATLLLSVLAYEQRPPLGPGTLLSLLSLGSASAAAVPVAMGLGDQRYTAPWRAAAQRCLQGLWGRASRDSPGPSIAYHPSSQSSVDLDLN
Description: Cell-based TGR5 assay (cAMP generation, HTRF). The conditions noted are these: HEK293 cells stably transfected with human TGR5; cAMP by HTRF; 30 minutes at 37° C.; read-out: pEC50 Human TGR5 (converted). A digest of the protocol: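 First, compounds in 3-fold serial dilution were placed in HBSS with 10 mM HEPES pH 7.4 and 0.5 mM IBMX. Next, human TGR5-expressing HEK293 cells were added and incubated 30 min at 37° C. Finally, cAMP was detected by HTRF and pEC50 derived by logistic fitting.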
On the technique in general: TR-FRET usually uses a lanthanide donor and a delayed reading to cut background.
`CN(CCCCc1cc(Cl)c(COC2(c3cnccc3-c3ccccc3OC3CC3)CC2)cc1Cl)C(=O)CN(CCN(CC(=O)O)CC(=O)N(C)CCCCc1cc(Cl)c(COC2(c3cnccc3-c3ccccc3OC3CC3)CC2)cc1Cl)CC(=O)O` [Compound I-188, 2-({2-[(carboxymethyl)[({4-[2,5-dichloro-4-({1-[4-(2-cyclopropoxyphenyl)pyridin-3-yl]cyclopropoxy}methyl)phenyl]butyl}(methyl)carbamoyl)methyl]amino]ethyl}[({4-[2,5-dichloro-4-({1-[4-(2-cyclopropoxyphenyl)pyridin-3-yl]cyclopropoxy}methyl)phenyl]butyl}(methyl)carbamoyl)methyl]amino)acetic acid]: the EC50 is 126 to 1000 nM.

As to `Cc1cc(COC2(c3cnccc3-c3ccccc3OC3COC3)CC2)c(Cl)cc1CCCCNC(=O)N(C)C[C@H](O)[C@@H](O)[C@H](O)[C@H](O)CO` [Compound I-191, 1-(4-{5-chloro-2-methyl-4-[(1-{4-[2-(oxetan-3-yloxy)phenyl]pyridin-3-yl}cyclopropoxy)methyl]phenyl}butyl)-3-methyl-3-[(2S,3R,4R,5R)-2,3,4,5,6-pentahydroxyhexyl]urea], the EC50 is under 100 nM.

`CN(C[C@H](O)[C@@H](O)[C@H](O)[C@H](O)CO)C(=O)CCCCc1cc(Cl)c(COC2(c3cnccc3-c3ccccc3OC3COC3)CC2)cc1Cl` [Compound I-192, 5-{2,5-dichloro-4-[(1-{4-[2-(oxetan-3-yloxy)phenyl]pyridin-3-yl}cyclopropoxy)methyl]phenyl}-N-methyl-N-[(2S,3R,4R,5R)-2,3,4,5,6-pentahydroxyhexyl]pentanamide]: the EC50 was under 100 nM.

`O=C(NCCCCc1cc(Cl)c(COC2(c3cnccc3-c3ccccc3OC3COC3)CC2)cc1Cl)NC[C@H](O)[C@@H](O)[C@H](O)[C@H](O)CO` [Compound I-193, 1-(4-{2,5-dichloro-4-[(1-{4-[2-(oxetan-3-yloxy)phenyl]pyridin-3-yl}cyclopropoxy)methyl]phenyl}butyl)-3-[(2S,3R,4R,5R)-2,3,4,5,6-pentahydroxyhexyl]urea]: the EC50 was under 100 nM.

`CN(CC(=O)O)CC(=O)N(CCCCc1cc(Cl)c(COC2(c3cnccc3-c3ccccc3OC3CC3)CC2)cc1Cl)C[C@H](O)[C@@H](O)[C@H](O)[C@H](O)CO` [Compound I-195, 2-{[({4-[2,5-dichloro-4-({1-[4-(2-cyclopropoxyphenyl)pyridin-3-yl]cyclopropoxy}methyl)phenyl]butyl}[(2S,3R,4R,5R)-2,3,4,5,6-pentahydroxyhexyl]carbamoyl)methyl](methyl)amino}acetic acid]: the EC50 is 126 to 1000 nM.

As to `CC(C)(CC(=O)O)CC(=O)N(CCCCc1cc(Cl)c(COC2(c3cnccc3-c3ccccc3OC3CC3)CC2)cc1Cl)C[C@H](O)[C@@H](O)[C@H](O)[C@H](O)CO` [Compound I-196, 4-({4-[2,5-dichloro-4-({1-[4-(2-cyclopropoxyphenyl)pyridin-3-yl]cyclopropoxy}methyl)phenyl]butyl}[(2S,3R,4R,5R)-2,3,4,5,6-pentahydroxyhexyl]carbamoyl)-3,3-dimethylbutanoic acid], the EC50 is 126 to 1000 nM.

Regarding `O=C(O)CCNC(=O)N(CCCCc1cc(Cl)c(COC2(c3cnccc3-c3ccccc3OC3CC3)CC2)cc1Cl)C[C@H](O)[C@@H](O)[C@H](O)[C@H](O)CO` [Compound I-198, 3-[({4-[2,5-dichloro-4-({1-[4-(2-cyclopropoxyphenyl)pyridin-3-yl]cyclopropoxy}methyl)phenyl]butyl}[(2S,3R,4R,5R)-2,3,4,5,6-pentahydroxyhexyl]carbamoyl)amino]propanoic acid], the EC50 is under 100 nM.

Consider `O=C(O)CCCNC(=O)N(CCCCc1cc(Cl)c(COC2(c3cnccc3-c3ccccc3OC3CC3)CC2)cc1Cl)C[C@H](O)[C@@H](O)[C@H](O)[C@H](O)CO` [Compound I-199, 4-[({4-[2,5-dichloro-4-({1-[4-(2-cyclopropoxyphenyl)pyridin-3-yl]cyclopropoxy}methyl)phenyl]butyl}[(2S,3R,4R,5R)-2,3,4,5,6-pentahydroxyhexyl]carbamoyl)amino]butanoic acid], for which the EC50 is 126 to 1000 nM.

As to `CN(CC(=O)O)CC(=O)N(CCCCc1cc(Cl)c(CNC2(c3cnccc3-c3ccccc3OC3CC3)CC2)cc1Cl)C[C@H](O)[C@@H](O)[C@H](O)[C@H](O)CO` [Compound I-200, 2-({[(4-{2,5-dichloro-4-[({1-[4-(2-cyclopropoxyphenyl)pyridin-3-yl]cyclopropyl}amino)methyl]phenyl}butyl)[(2S,3R,4R,5R)-2,3,4,5,6-pentahydroxyhexyl]carbamoyl]methyl}(methyl)amino) acetic acid], the EC50 was 1260 to 10000 nM.

Take `CC(C)(CC(=O)O)CC(=O)N(CCCCc1cc(Cl)c(CNC2(c3cnccc3-c3ccccc3OC3CC3)CC2)cc1Cl)C[C@H](O)[C@@H](O)[C@H](O)[C@H](O)CO` [Compound I-201, 4-[(4-{2,5-dichloro-4-[({1-[4-(2-cyclopropoxyphenyl)pyridin-3-yl]cyclopropyl}amino)methyl]phenyl}butyl)[(2S,3R,4R,5R)-2,3,4,5,6-pentahydroxyhexyl]carbamoyl]-3,3-dimethylbutanoic acid]: the EC50 was 1260 to 10000 nM.

Consider `CS(=O)(=O)CC(=O)N(CCCCc1cc(Cl)c(COC2(c3cnccc3-c3ccccc3OC3CC3)CC2)cc1Cl)C[C@H](O)[C@@H](O)[C@H](O)[C@H](O)CO` [Compound I-202, N-{4-[2,5-dichloro-4-({1-[4-(2-cyclopropoxyphenyl)pyridin-3-yl]cyclopropoxy}methyl)phenyl]butyl}-2-methanesulfonyl-N-[(2S,3R,4R,5R)-2,3,4,5,6-pentahydroxyhexyl]acetamide], for which the EC50 was under 100 nM.

As to `CN(C)CC(=O)N(CCCCc1cc(Cl)c(COC2(c3cnccc3-c3ccccc3OC3CC3)CC2)cc1Cl)C[C@H](O)[C@@H](O)[C@H](O)[C@H](O)CO` [Compound I-203, N-{4-[2,5-dichloro-4-({1-[4-(2-cyclopropoxyphenyl)pyridin-3-yl]cyclopropoxy}methyl)phenyl]butyl}-2-(dimethylamino)-N-[(2S,3R,4R,5R)-2,3,4,5,6-pentahydroxyhexyl]acetamide], the EC50 was under 100 nM.

Take `CCCN(CCCCc1cc(Cl)c(COC2(c3cnccc3-c3ccccc3OC3CC3)CC2)cc1Cl)C(=O)[C@@H](O)[C@@H](O)[C@H](O)[C@@H](O)CO` [Compound I-205, (2S,3S,4R,5S)-N-{4-[2,5-dichloro-4-({1-[4-(2-cyclopropoxyphenyl)pyridin-3-yl]cyclopropoxy}methyl)phenyl]butyl}-2,3,4,5,6-pentahydroxy-N-propylhexanamide]: the EC50 was under 100 nM.

With `COCCN(CCCCc1cc(Cl)c(COC2(c3cnccc3-c3ccccc3OC3CC3)CC2)cc1Cl)C(=O)[C@@H](O)[C@@H](O)[C@H](O)[C@@H](O)CO` [Compound I-206, (2S,3S,4R,5S)-N-{4-[2,5-dichloro-4-({1-[4-(2-cyclopropoxyphenyl)pyridin-3-yl]cyclopropoxy}methyl)phenyl]butyl}-2,3,4,5,6-pentahydroxy-N-(2-methoxyethyl)hexanamide], the EC50 was under 100 nM.

Take `CN(C)CCN(C[C@H](O)[C@@H](O)[C@H](O)[C@H](O)CO)C(=O)CCCCc1cc(Cl)c(COC2(c3cnccc3-c3ccccc3OC3CC3)CC2)cc1Cl` [Compound I-207, 5-[2,5-dichloro-4-({1-[4-(2-cyclopropoxyphenyl)pyridin-3-yl]cyclopropoxy}methyl)phenyl)-N-[2-(dimethylamino)ethyl]-N-[(2S,3R,4R,5R)-2,3,4,5,6-pentahydroxyhexyl]pentanamide]: the EC50 is 126 to 1000 nM.

On to `O=C([C@@H](O)[C@@H](O)[C@H](O)[C@@H](O)CO)N(CCCCc1cc(Cl)c(COC2(c3cnccc3-c3ccccc3OC3CC3)CC2)cc1Cl)CC1CC1` [Compound I-211, (2S,3S,4R,5S)-N-(cyclopropylmethyl)-N-{4-[2,5-dichloro-4-({1-[4-(2-cyclopropoxyphenyl)pyridin-3-yl]cyclopropoxy}methyl)phenyl]butyl}-2,3,4,5,6-pentahydroxyhexanamide], for which the EC50 is under 100 nM.

Regarding `COCCCN(CCCCc1cc(Cl)c(COC2(c3cnccc3-c3ccccc3OC3CC3)CC2)cc1Cl)C(=O)[C@@H](O)[C@@H](O)[C@H](O)[C@@H](O)CO` [Compound I-212, (2S,3S,4R,5S)-N-{4-[2,5-dichloro-4-({1-[4-(2-cyclopropoxyphenyl)pyridin-3-yl]cyclopropoxy}methyl)phenyl]butyl}-2,3,4,5,6-pentahydroxy-N-(3-methoxypropyl)hexanamide], the EC50 was under 100 nM.

For the compound `O=C([C@@H](O)[C@@H](O)[C@H](O)[C@@H](O)CO)N(CCO)CCCCc1cc(Cl)c(COC2(c3cnccc3-c3ccccc3OC3CC3)CC2)cc1Cl` [Compound I-213, (2S,3S,4R,5S)-N-{4-[2,5-dichloro-4-({1-[4-(2-cyclopropoxyphenyl)pyridin-3-yl]cyclopropoxy}methyl)phenyl]butyl}-2,3,4,5,6-pentahydroxy-N-(2-hydroxyethyl)hexanamide], the EC50 is under 100 nM.

For `C[C@@H](O)CN(CCCCc1cc(Cl)c(COC2(c3cnccc3-c3ccccc3OC3CC3)CC2)cc1Cl)C(=O)[C@@H](O)[C@@H](O)[C@H](O)[C@@H](O)CO` [Compound I-214, (2S,3S,4R,5S)-N-{4-[2,5-dichloro-4-({1-[4-(2-cyclopropoxyphenyl)pyridin-3-yl]cyclopropoxy}methyl)phenyl]butyl}-2,3,4,5,6-pentahydroxy-N-[(2R)-2-hydroxypropyl]hexanamide], the EC50 is under 100 nM.
